Measurements as given in patent US10307458B2, “Peptide as absorption enhancer and composition containing same” (SOONCHUNHYANG UNIVERSITY INDUSTRY ACADEMY COOPERATION …, priority 2014, dated 2019).
Where no end group is shown, it is not given here.

Columns and labels:
nasal mucous membrane = experiment: Nasal administration of 3H-mannitol with or without peptide to rats; mannitol concentration in blood (mucous membrane permeability); settings: nasal, rats, peptide 2.5 mg/kg
Description: (§1) Male SD (Sprague-Dawley) rats (280-300 g) were provided to adapt to each separate cage of the animal facility at least 2 days. At this point, foods and water were freely allowed to the rats, which were exposed to light for 12 hours and kept in dark for another 12 hours. One day before the testing, the rats were provided with water only and kept from eating food.
(§2) The peptides of the Preparation Examples or the Example, and mannitol(^3H-Mannitol, 14.2 Ci/mmol, PerkinElmer) were used to prepare the individual preparation groups given as follows:
(§3) The first preparation group was a control group and prepared as an aqueous solution of 5% (w/v) dextrose containing mannitol without a peptide.
(§4) The second preparation group was prepared as an aqueous solution of 5% (w/v) dextrose containing mannitol and the FCIGRL peptide of the Preparation Example 1.
(§5) The third preparation group was prepared as an aqueous solution of 5% (w/v) dextrose containing mannitol and the Ac-FCIGRL peptide of the Preparation Example 2.
(§6) The fourth preparation group was prepared as an aqueous solution of 5% (w/v) dextrose containing mannitol and the FCIGRL-NH2 peptide of the Example 1.
(§7) The male SD rats provided above 1. were divided into four groups, each having five male SD rats. The first to fourth preparation groups were nasally administered into the first to fourth rat groups, respectively.
(§8) At this point, the dosage of each solution was 70 μl per rat, where the dosages of mannitol and each peptide were 20 μCi/kg and 2.5 mg/kg, respectively.
(§9) Prior to the nasal administration, each rat was anesthetized to implant a cannula into the jugular vein of it. The solution was taken into the nostrils of the rat through a micropipette (Eppendorf) with caution as not to affect the nasal mucous membrane, while the rat was lying on the back to rest its head sideways against the wall.
(§10) 250 μl of blood was collected from each rat in 10, 20, 40, 60, 120, 180, 240 and 360 minutes after administration of the solution through jugular vein cannulation. The blood was subjected to centrifugal separation at 13,000 rpm for 10 minutes to obtain 100 μl of plasma. A scintillation cocktail solution was added to the plasma. Then, an LS6500 Universal counter (Beckman Coulter, Brea, Calif., USA) was used to measure the radiation quantity for the quantitative analysis of mannitol.
(§11) The mannitol concentration in blood from the rats of each group is graphed in FIG. 1. Table 1 presents the pharmacokinetic parameters, that is, AUC, Cmax, Tmax, and T1/2 of mannitol.

[1] = buffer solution that is slightly acid (pH 5.0), neutral, and basic; cited from earlier work
[2] = preparation group containing mannitol and the peptide, for nasal administration
in vivo = settings: male, Sprague-Dawley, rat, in vivo, inhaled or intranasal, 2.5 mg/kg
Description: as §1, §2, §3, §4, §5, §6, §7, §8, §9, §10, §11

For “H-FCIGRL-OH [FCIGRL, Phe-Cys-Ile-Gly-Arg-Leu]”, which “difference in the blood mannitol concentration versus mannitol alone” value (nasal mucous membrane) is on record?
The value was “no significant difference”.

What about the “maintenance of the intact form of peptide over time” value [1] of the same compound?
The value was “cannot maintain the intact form of peptide over time”.

Which “AUC0-360min of mannitol relative to the administration group of mannitol alone” value (nasal mucous membrane; p<0.01) does the source give for FCIGRL-NH2 [FCIGRL-NH2] here?
The value was 3.63 times.

And the “Cmax of mannitol relative to the administration group of mannitol alone” value (nasal mucous membrane; p<0.01)?
The value was 2.68 times.

For Ac-FCIGRL-NH2 [Ac-FCIGRL-NH2], which “solubility of the peptide” value [2] is on record?
The value was “such a low solubility of the peptide as to make nasal administration of the peptide impossible”.

What does the source list for `OC[C@@H](O)[C@@H](O)[C@H](O)[C@H](O)CO` [Mannitol, mannitol]?
AUC(0-t) (in vivo): 0.101 ng·h/mL; Cmax (in vivo): 0.0306 ± 0.00602 ng/mL; Tmax (in vivo): 0.583 h; half-life (in vivo): 3.59 ± 0.0515 h

For Ac-FCIGRL [Ac-FCIGRL], which “difference in the blood mannitol concentration versus mannitol alone” value (nasal mucous membrane) is on record?
The value was “no significant difference”.
